“Also recorded” adds a separate entry of the source.
Tests used:
tumor cells (C6 glioma) = assay: In vivo fluorescent imaging using C6 tumor model mice (rat glioma C6 cells transplanted subcutaneously in nude mice); parameters: species or system mouse
Experimental: C6 cells were prepared according to an ordinary method so that the cell number was 2×10^7 cells/mL.
C6 cells were seeded on a 10 cm petri dish, allowed to stand still in a CO2 incubator, and cultured at 37° C. The culture medium was exchanged once every two days.
1 g/L glucose-containing Dulbecco's modified Eagle's Medium (DMEM) (Nacalai No. 08456-65), to which Fetal Bovine Serum (Equitech-Bio SFBM) was added so that the final concentration was 10% and penicillin-streptomycin (Nacalai No. 26253-84) was added so that the final concentration was 1%, was used.
5 to 6-week old athymic nude mice (BALB/cAJcl-nu/nu) were transplanted with 50 μL of a cell suspension adjusted to 2×10^7 cells/mL subcutaneously around the root of right hind paw, under isoflurane anesthesia. The transplanted tumor cells were observed until growing to about 200 to 300 mm^3, and used in vivo fluorescent imaging.
C6 tumor model mice were allowed to stand still in an in vivo fluorescence imaging apparatus IVIS (registered trademark) Kinetics (Caliper Life sciences) under isoflurane anesthesia and autofluorescence of the mouse skin was measured, and subsequently, 400 nmol (100 μL) of 2-NBDLG or 2-NBDG dissolved in physiological saline was administered from the tail vein over a period of 30 seconds, and measurement of the fluorescence imaging was started again from one minute after starting administration. The in vivo fluorescence imaging was measured at an excitation wavelength of 465 nm using a GFP filter (transmittable fluorescence wavelength: 515-575 nm). The measurement was conducted for 45 minutes, and images were taken every one minute during the initial 20 minute and every 5 minutes from 20 to 45 minutes, obtaining 25 images in total. The accumulated values (fluorescence value) of 2-NBDLG and 2-NBDG in the interested area were obtained by subtracting the autofluorescence images from the 25 images taken after administration of 2-NBDLG or 2-NBDG.
A vial of 0.5 mg of 2-NBDLG or 2-NBDG was dissolved in 400 μL of physiological saline directly before the experiment, to prepare a solution having a final concentration of 400 nmol/100 μL.

[1] = test system: mouse insulinoma cells (MIN6); assay: Confocal imaging of MIN6 tumor cell cluster using 2-NBDLG+2-TRLG mixture; assay type: cell-based
Experimental: A 0.1 mg 2-TRLG vial was transferred into a desiccator and the temperature thereof was returned to room temperature. […] Specifically, 6.5 mL of the above-described 2-NBDLG solution was prepared beforehand and stirred vigorously. Then, 40 μL of DMSO was added to a 2-TRLG vial container using a RAININ chip (Mettler Toledo) in which adhesion to the tip wall is ignorable, and stirred with the vial container by a mixer to cause dissolution thereof. 2-TRLG adhered to the wall was collected to the bottom by spinning down, the whole quantity thereof was removed by [sequence] using the same chip, and dissolved in the 2-NBDLG solution being stirred. 2-TRLG slightly remaining in the 2-TRLG vial container was recovered using 25 μL of DMSO in the same manner as described above, and further dissolved in the 2-NBDLG solution. By the above-described method, a mixed solution of 100 μM 2-NBDLG+20 μM 2-TRLG (final concentration) was prepared with good reproducibility.
A 100 μM 2-NBDLG+20 μM 2-TRLG mixture was administered for 3 minutes in a condition completely covering the whole tumor cell cluster. The state of the solution covering the whole cell cluster was confirmed each time without fail by fluorescence images in the green and red wavelength ranges during administration and acquisition of a transmitted light image. By stopping application of the fluorescent glucose mixture and switching simultaneously to the solution to a no fluorescent glucose-containing HEPES solution, the background fluorescence became ignorable level in 1 minute.
By the method according to Example 3, image acquisition before administration of the mixture was started just after starting an experiment, and from then on, the fluorescence images in the blue, green and red wavelength ranges and a transmitted light image were acquired every 2 minutes until completion of the experiment. Regarding laser used, DAPI used for nuclear staining was excited by using 405 nm diode laser (AOTF 20%) and 2-NBDLG and 2-TRLG were excited by using 488 nm argon laser (output: 50%, AOTF 28%). The scan speed was 400 Hz.
For fluorescence detection, three fluorescence detectors were used as described below. For detection of blue fluorescence by DAPI, a photomultiplier detector (PMT)1 was used in the wavelength detection range of 415 to 500 nm (detection sensitivity: 750 V), for detection of green fluorescence by 2-NBDLG, PMT2 was used in the wavelength detection range of 500 to 580 nm (detection sensitivity: 670 V), and for detection of red fluorescence, PMT3 was used in the wavelength detection range of 580 to 740 nm (detection sensitivity: 670 V). Here, most of the fluorescence of 2-TRLG is present in the wavelength longer than 580 nm and only a small fluorescent component is present in the wavelength less than 580 nm, thus, the fluorescence intensity in the range of 500 to 580 nm of PMT2 is barely influenced by 2-TRLG. Therefore, when the amount of detection of 2-TRLG in cells increases, its effect emerges mainly as an increase in the fluorescence intensity in the range of 580 to 740 nm of PMT3. On the other hand, although 2-NBDLG has the maximal fluorescence intensity around 540 to 550 nm, it has fluorescence in the range of 580 to 740 nm as well. Therefore, when the amount of detection of 2-NBDLG within the cell increases, the fluorescence intensity in the range of 580 to 740 nm detected by PMT3 also increases in addition to an increase in the fluorescence intensity in the range of 500 to 580 nm detected by PMT2. […]

[2] = test system: mouse insulinoma cells (MIN6); assay: Uptake into MIN6 cells with or without inhibitors, fluorescence microplate reader (Flex Station); assay type: cell-based; conditions: 200 μM, 5 minutes
Experimental: A difference in the uptake of 2-NBDLG (200 μM) and 2-NBDG (200 μM) into mouse insulinoma cells (MIN6) each applied for 5 minutes was analyzed quantitatively by a fluorescence microplate reader Flex Station (manufactured by Molecular Devices Corporation) in the condition whether or not various inhibitors are present. The well used for measurement was a 96-well clear bottomed well plate μ CLEAR-PLATE (Greiner bio-one, BLACK, 96 well, #655090) having longitudinally […] to 12 twelve columns, and MIN6 cell suspension prepared at a proportion of 6×10^5 cells/mL was seeded uniformly into wells from line B to line G at the third column and the fifth column each in an amount of 15 μL. For medium exchange, the half quantity was exchanged every two days in 0 to 4 DIV (days in vitro), and from 5 DIV or later, exchanged every day, and on days 10 to 13 (10 to 13 DIV), the cells were subjected to an experiment. Line A and line H were used as a control for checking correct washout, without seeding cells. In the fourth column, cells were not present, and wells in this column were used as a blank containing only Krebs Ringer buffer solution (KRB, containing 0.1 mM gap junction inhibitor carbenoxolone and 5.6 mM glucose). Evaluation was done in a way that 2-NBDLG or 2-NBDG was charged in each tube of a 8-strip PCR tube, and sucked using a 8-channel pipette and dropped simultaneously into wells. In this way, administration to wells for 2-NBDLG and to wells for 2-NBDG can be done simultaneously, making reliable evaluation possible. As described above, cells are present in 12 wells in the third and the fifth two columns, and these were divide into 4 groups each having 3 wells according to a difference either 2-NBDLG or 2-NBDG and whether an inhibitor is present or absent. Specifically, when checking the effect by the presence or absence of a GLUT inhibitor Cytochalasin B (10 μM) on the uptake of 2-NBDLG (200 μM) and 2-NBDG (200 μM), first, in wells, which are planned to be measured in the presence of Cytochalasin B, Cytochalasin B was added 5 minutes prior to the administration of the fluorescently labeled glucose derivative. Before administration of a fluorescently labeled glucose derivative, the autofluorescence was measured in each well. The measurement was done with Flex Station in Well Scan Mode and in the Bottom Read position at Ex 470 nm, Em 540 nm, Cut off 495 nm, Averaging 3, and Photomultiplier sensitivity: high. In Well Scan Mode of the fluorescence microplate reader Flex Station, one well was divided into nine observation areas and these are measured independently. The presence of approximately 5000 cells in each of 9-divided areas was separately confirmed by Z section measurement of a realtime deconvolution microscope. 2-NBDG and 2-NBDLG were administered with or without Cytochalasin B (37° C., 5 minutes), and after cessation of administration, an operation of adding 250 μL of a KRB solution containing no fluorescently labeled glucose into 50 μL of a solution in a well was repeated 7 times while measuring with a stopwatch, thereby performing washout until the fluorescence intensities of wells in line A and line H set as a control group became equal to the fluorescence intensity of the blank well containing no cell. This process required 7 minutes, and even if cells having broken plasma membrane condition are brought into contact with 2-NBDG and 2-NBDLG, and even if these compounds are once taken up into the cell, these compounds are already eliminated out of the cell and are washed away in measurement, therefore, contribution to an increase in the fluorescence intensity in the whole observation area was judged to be in an ignorable level. This was supported by a separate pharmacological inhibition experiment in which the increase in the fluorescence intensity nearly disappears in the presence of an inhibitor. The above-described method was carried out similarly in the case of other inhibitors. […]

[3] = 100 μM 2-NBDLG+20 μM 2-TRLG mixture for 3 minutes

`O=[N+]([O-])c1ccc(NC2C(O)OC(CO)[C@H](O)C2O)c2nonc12` (stereo partly drawn) [2-NBDLG, 2-[N-(7-Nitrobenz-2-oxa-1,3-diazol-4-yl)amino]-2-deoxy-L-glucose] was tested, and the “fluorescence values at tumor-transplanted part (Tumor) versus normal tissue (BG), FIG. 3” value (tumor cells (C6 glioma); 400 nmol i.v., temporal change over 45 minutes, same result in 6 examples) was “fluorescence values at the tumor-transplanted part (blue rhombus, Tumor) are consistently larger than at normal tissue”, the “time from which accumulations at the tumor cell-transplanted part were recognized” value (tumor cells (C6 glioma); 400 nmol/100 μL from the tail vein) was “around 5 minutes after administration” and the “accumulation at the tumor-transplanted part” value (tumor cells (C6 glioma); 400 nmol/100 μL from the tail vein over 30 seconds, non-fasted nude mice, fluorescence images every one minute) was “intense accumulations”. For the same compound, the “contrast between tumor-transplanted part and normal tissue (adipocyte-rich dorsal part near neck)” value (tumor cells (C6 glioma); 400 nmol/100 μL from the tail vein, non-fasted mice) was “excellent contrast; also recorded: high contrast”, the “uptake/accumulation in normal tissue” value (tumor cells (C6 glioma); 400 nmol/100 μL from the tail vein, normal tissue (fat tissue on the back, between back bones, muscle)) was “scarcely taken up” and the “fluorescence at the central region of the cell cluster, 4 minutes after cessation of administration” value [1, 3] was “weaken to a considerable extent”. The “uptake into cells just outside of the central region of the cell cluster” value [1, 3] was “taking up almost no”, the “uptake at the central region of the cell cluster, 2 minutes after cessation of administration” value ([1]; 100 μM 2-NBDLG+20 μM 2-TRLG mixture for 3 minutes, green channel (2-NBDLG), red channel (2-TRLG)) was “Intense uptake” and the “time of elimination from spherical cells on the outermost periphery of the cell cluster” value ([1]; 100 μM 2-NBDLG+20 μM 2-TRLG mixture, after cessation of administration) was at most 2 min. For the same compound, the “time of elimination from cells at the central region of the tumor cell cluster” value ([1]; 100 μM 2-NBDLG+20 μM 2-TRLG mixture, between 2 and 4 minutes after cessation) was at most 2 min, the “effect of GLUT inhibitor Cytochalasin B on uptake into MIN6 cells” value ([2]; 37° C., Cytochalasin B (10 µM, CB)) was “did not show a significant decrease (N.S.)” and the “uptake into MIN6 cells in buffer containing Na+ versus no Na+ ion (SGLT)” value ([2]; 37° C., Na(−) buffer, choline substituted) was “no significant difference”. The “effect of Phloretin on uptake into MIN6 cells” value ([2]; Phloretin (150 μM, PHT)) was “underwent inhibition of the uptake”.

Reference: US20140154717A1, “METHOD FOR DETECTING CANCER CELL USING FLUORESCENTLY LABELED L-GLUCOSE DERIVATIVE, AND CANCER CELL-IMAGING AGENT COMPRISING FLUORESCENTLY LABELED L-GLUCOSE DERIVATIVE” (priority 2011, published 2014)
